From US11753411B2, “Substituted pyrazolo[1,5-a]pyrimidines as TYK2 pseudokinase ligands” (Ventyx Biosciences, Inc., priority 2019, dated 2023)

System: IFN-a/Jak1 Tyk2
Experiment: Co-stimulation assay in lysed whole blood: IFNa (JAK1/TYK2) stimulated STAT1 phosphorylation
Assay type: cell-based
Details: Homo sapiens, 20 min, 100 ng/mL IFNa (with 10 ng/mL GM-CSF), pSTAT by flow cytometry
Description: Example 12: Co-Stimulation Assay in Lysed Whole Blood; JAK2: GM-CSF Stimulated STAT5 Phosphorylation and JAK1/TYK2 Stimulated STAT1 Phosphorylation Assay
Human Blood Lysis Using Abcam's RBC Lysis Buffer
Dilute RBC lysis buffer to 1× in distilled water. Add 2 mL blood to 38 mL of 1×RBC-lysis buffer. Incubate for 15 mins at RT, in dark. Spin at 300 g, 5 mins, to collect the pellet. Re-lyse if necessary. Re-suspend pellet in 5 mL of cRPMI.
Compound and Cytokine Treatment
Aliquot 80 μL of lysed human blood in to wells of 96 deep-well plate. Add 10 μl of (10× conc.) of different concentrations of compounds to all wells except controls (unstained and unstimulated) and mix it with the help of 100 uL multichannel. Add 10 uL of RPMI media in controls. For dilution of compounds and dilution range please refer Appendix. Incubate on water bath or CO2 incubator for 1 hour at 37° C. Add 10 μl of (10× conc.) of cytokine mix (GM-CSF and IFNa) (final conc.10 ng/mL of GM-CSF and 100 ng/mL of IFNa) to each well except unstimulated and unstained controls and incubate further for 20 minutes on water bath at 37° C.
Add 900 μL of prewarmed 1× Fix/Lyse solution (Appendix) and mix it properly using 1000 μl multichannel, incubate further on water bath at 37° C. for 10 minutes (which includes time of addition). Centrifuge at 800×g for 5 minutes at 40° C.; remove 900 uL of supernatant and add 900 μL of 1×PBS. Centrifuge at 800×g for 5 minutes at 40° C., remove 900 μL of supernatant. Wash one more time with 900 μL of PBS (optional) and resuspend pellets in 100 uL of PBS.
Disrupt the pellet by gentle tapping and resuspend in 1000 μL of BD Phosflow Perm Buffer III and incubate plate on ice for 30 minutes. Centrifuge plate at 800×g for 5 minutes at 40° C. Wash two more times with 1000 μL of BD Pharmingen Stain Buffer.
Disrupt the pellet by gentle tapping. Resuspend pellets in 100 uL of Stain Buffer and add 5 μL of pSTAT5_AF488 Ab and 5 uL of pSTAT_PE in all wells except unstained control and mix properly using 200 μl multichannel, incubate overnight at […]. Add 900 μL of wash buffer and centrifuge at 1800 rpm for 3 minutes at 40° C. Wash one more time with 1000 μL of BD Pharmingen Stain Buffer. Finally resuspend the pellet in 300 uL of BD Pharmingen Stain Buffer. Transfer the cells to 96-well v-bottom plate and acquire the cells in Beckman Coulter CytExpert. Acquiring cells in Flow Cytometer: Keep the threshold value to 250 and cell concentration should not exceed 100-500 cells/μL. Acquire at least 5,000-10,000 cells.
RPMI 1640 Complete Medium: RPMI 1640 media+10% FBS.
Cytokine dilution: 1) GM-CSF Stock at 100 ug/mL. Prepare an intermediate dilution of 1 ug/mL by adding 2 uL of stock into 198 uL of cRPMI. Further dilute to 100 ng/mL by adding 100 uL of the intermediate stock to 900 uL of cRPMI. 2) IFNa Stock at 200 ug/mL. Dilute IFNa stock 1:200 by adding 5 uL of stock into the 1000 uL of 100 ng/mL GM-CSF working stock as above to give a combined working stock of 1000 ng/mL of IFNa and 100 ng/mL GM-CSF (10×). Keep it on ice until used.
Lyse/Fix buffer preparation: Dilute 5× Lyse/Fix buffer to 1× using MQ water and keep at 37° C. until used.
BD Phosflow perm buffer III: Keep on ice/fridge.

Compound	IC50 [nM]
CNc1cc(Nc2cccc3c2OCCO3)nc2c(NC(=O)N[C@@H]3C[C@@H]3F)c(C)nn12 [Compound 172, 1-(5-((2,3-dihydrobenzo[b][1,4]dioxin-5-yl)amino)-2-methyl-7-(methylamino)pyrazolo[1,5-a]pyrimidin-3-yl)-3-((1R,2S)-2-fluorocyclopropyl)urea]	≥ 10000
CNC(=O)Nc1cnn2c(NC)cc(Nc3cccc(-c4cnn(C)c4)c3OC)nc12 [Compound 19, 1-(5-((2-methoxy-3-(1-methyl-1H-pyrazol-4-yl)phenyl)amino)-7-(methylamino)pyrazolo[1,5-a]pyrimidin-3-yl)-3-methylurea]	1000 to 10000
CNC(=O)Nc1cnn2c(NC)cc(Nc3ccccc3OC(C)C)nc12 [Compound 162, 1-(5-((2-isopropoxyphenyl)amino)-7-(methylamino)pyrazolo[1,5-a]pyrimidin-3-yl)-3-methylurea]	1000 to 10000
CNC(=O)Nc1cnn2c(NC)cc(Nc3cccc(OC)c3OC)nc12 [Compound 97, 1-(5-((2,3-dimethoxyphenyl)amino)-7-(methylamino)pyrazolo[1,5-a]pyrimidin-3-yl)-3-methylurea]	1000 to 10000
CNc1cc(Nc2cccc3c2OCCO3)nc2c(NC(=O)NCCO)cnn12 [Compound 145, 1-(5-((2,3-dihydrobenzo[b][1,4]dioxin-5-yl)amino)-7-(methylamino)pyrazolo[1,5-a]pyrimidin-3-yl)-3-(2-hydroxyethyl)urea]	1000 to 10000
CNc1cc(Nc2cc(F)cc3c2OCCO3)nc2c(NC(N)=O)cnn12 [Compound 124, 1-(5-((7-fluoro-2,3-dihydrobenzo[b][1,4]dioxin-5-yl)amino)-7-(methylamino)pyrazolo[1,5-a]pyrimidin-3-yl)urea]	< 1000
CNc1cc(Nc2cccc3c2OCCO3)nc2c(NC(=O)NCC3(C#N)CC3)cnn12 [Compound 138, 1-((1-cyanocyclopropyl)methyl)-3-(5-((2,3-dihydrobenzo[b][1,4]dioxin-5-yl)amino)-7-(methylamino)pyrazolo[1,5-a]pyrimidin-3-yl)urea]	< 1000
CNC(=O)Nc1cnn2c(NC)cc(Nc3cccc4c3OCCN4C)nc12 [Compound 62, 1-methyl-3-(5-((4-methyl-3,4-dihydro-2H-benzo[b][1,4]oxazin-8-yl)amino)-7-(methylamino)pyrazolo[1,5-a]pyrimidin-3-yl)urea]	1000 to 10000
CNC(=O)Nc1cnn2c(NC)cc(Nc3cc(F)cc4c3OCCC4)nc12 [Compound 158, 1-(5-((6-fluorochroman-8-yl)amino)-7-(methylamino)pyrazolo[1,5-a]pyrimidin-3-yl)-3-methylurea]	< 1000
CNC(=O)Nc1cnn2c(NC)cc(Nc3cccn(-c4ccc(OC)nn4)c3=O)nc12 [Compound 17, 1-(5-((1-(6-methoxypyridazin-3-yl)-2-oxo-1,2-dihydropyridin-3-yl)amino)-7-(methylamino)pyrazolo[1,5-a]pyrimidin-3-yl)-3-methylurea]	1000 to 10000
CNc1cc(Nc2cccc3nccnc23)nc2c(NC(=O)N[C@@H]3C[C@@H]3F)cnn12 [Compound 44, 1-((1R,2S)-2-fluorocyclopropyl)-3-(7-(methylamino)-5-(quinoxalin-5-ylamino)pyrazolo[1,5-a]pyrimidin-3-yl)urea]	< 1000
CNc1cc(Nc2cc(F)cc3c2OCCO3)nc2c(NC(=O)NC3CC3F)cnn12 (stereo not drawn) [Compound 37, 1-(5-((7-fluoro-2,3-dihydrobenzo[b][1,4]dioxin-5-yl)amino)-7-(methylamino)pyrazolo[1,5-a]pyrimidin-3-yl)-3-(2-fluorocyclopropyl)urea]	< 1000
CNC(=O)Nc1cnn2c(NC)cc(Nc3cccc4nccnc34)nc12 [Compound 166, 1-methyl-3-(7-(methylamino)-5-(quinoxalin-5-ylamino)pyrazolo[1,5-a]pyrimidin-3-yl)urea]	< 1000

More lines, now with the values ahead:

IC50 [nM]	Compound
1000 to 10000	CNc1cc(Nc2cccc3c2OCCO3)nc2c(NC(=O)NCCCO)cnn12 [Compound 100, 1-(5-((2,3-dihydrobenzo[b][1,4]dixoin-5-y)amino)-7-(methylamino)pyrazolo[1,5-a]pyrimidin-3-yl)-3-(3-hydroxypropyl)urea]
< 1000	[2H]C([2H])([2H])Nc1cc(-c2cn(C3CCOCC3)c3ncccc23)nc2c(NC(=O)NC)cnn12 [Compound 73, 1-methyl-3-(7-((methyl-d3)amino)-5-(1-(tetrahydro-2H-pyran-4-yl)-1H-pyrrolo[2,3-b]pyridin-3-yl)pyrazolo[1,5-a]pyrimidin-3-yl)urea]
< 1000	CNc1cc(Nc2cccc3c2OCCO3)nc2c(NC(N)=O)cnn12 [Compound 10, 1-(5-((2,3-dihydrobenzo[b][1,4]dioxin-5-yl)amino)-7-(methylamino)pyrazolo[1,5-a]pyrimidin-3-yl)urea]
< 1000	CNc1cc(Nc2cccc3occc23)nc2c(NC(=O)NCC#N)cnn12 [Compound 131, 1-(5-(benzofuran-4-ylamino)-7-(methylamino)pyrazolo[1,5-a]pyrimidin-3-yl)-3-(cyanomethyl)urea]
1000 to 10000	CNC(=O)Nc1cnn2c(NC)cc(Nc3cccc4c3N(C)CCO4)nc12 [Compound 163, 1-methyl-3-(5-((4-methyl-3,4-dihydro-2H-benzo[b][1,4]oxazin-5-yl)amino)-7-(methylamino)pyrazolo[1,5-a]pyrimidin-3-yl)urea]
< 1000	CNC(=O)Nc1cnn2c(NC)cc(Nc3cccc4c3OCCC4)nc12 [Compound 157, 1-(5-(chroman-8-ylamino)-7-(methylamino)pyrazolo[1,5-a]pyrimidin-3-yl)-3-methylurea]
1000 to 10000	CNC(=O)Nc1cnn2c(NC)cc(Nc3cccc(Cl)c3OC)nc12 [Compound 63, 1-(5-((3-chloro-2-methoxyphenyl)amino)-7-(methylamino)pyrazolo[1,5-a]pyrimidin-3-yl)-3-methylurea]
1000 to 10000	C#CCNC(=O)Nc1cnn2c(NC)cc(Nc3c(F)ccc4c3OCCO4)nc12 [Compound 135, 1-(5-((6-fluoro-2,3-dihydrobenzo[b][1,4]dioxin-5-yl)amino)-7-(methylamino)pyrazolo[1,5-a]pyrimidin-3-yl)-3-(prop-2-yn-1-yl)urea]
< 1000	CNC(=O)Nc1cnn2c(NC)cc(Nc3cc(C)ccc3OC)nc12 [Compound 68, 1-(5-((2-methoxy-5-methylphenyl)amino)-7-(methylamino)pyrazolo[1,5-a]pyrimidin-3-yl)-3-methylurea]
1000 to 10000	CNc1cc(Nc2cc(F)cc3c2OCCO3)nc2c(NC(=O)NCC(F)F)cnn12 [Compound 133, 1-(2,2-difluoroethyl)-3-(5-((7-fluoro-2,3-dihydrobenzo[b][1,4]dioxin-5-yl)amino)-7-(methylamino)pyrazolo[1,5-a]pyrimidin-3-yl)urea]
< 1000	CNC(=O)Nc1cnn2c(NC)cc(Nc3cccc4ccccc34)nc12 [Compound 160, 1-methyl-3-(7-(methylamino)-5-(naphthalen-1-ylamino)pyrazolo[1,5-a]pyrimidin-3-yl)urea]
< 1000	CNC(=O)Nc1cnn2c(NC)cc(Nc3cccnc3OC)nc12 [Compound 164, 1-(5-((2-methoxypyridin-3-yl)amino)-7-(methylamino)pyrazolo[1,5-a]pyrimidin-3-yl)-3-methylurea]
1000 to 10000	CNC(=O)Nc1cnn2c(NC)cc(Nc3cccc4c3OCC(=O)N4)nc12 [Compound 98, 1-methyl-3-(7-(methylamino)-5-((3-oxo-3,4-dihydro-2H-benzo[b][1,4]oxazin-8-yl)amino)pyrazolo[1,5-a]pyrimidin-3-yl)urea]
< 1000	CNC(=O)Nc1cnn2c(NC)cc(Nc3cccc4c3CCCO4)nc12 [Compound 154, 1-(5-(chroman-5-ylamino)-7-(methylamino)pyrazolo[1,5-a]pyrimidin-3-yl)-3-methylurea]
